# Key:
# human 5-HT1A receptor = biological target: T1, human 5-HT1A receptor (Homo sapiens, UniProt P08908); experiment: GPCR radioligand binding assay, [3H]-8-OH-DPAT displacement, HEK293 membranes; details: for %inh 5-HT1A average: average of exp_1 and exp_2; for %inh 5-HT1A corrected*: average, values below 0 and above 100% were set as 0 and 100; for %inh 5-HT1A exp_1: replicate exp_1; for %inh 5-HT1A exp_2: replicate exp_2; for 5-HT1A % Inhibition by plate position: 10 µM
# T1 construct: expressed in transfected cells
# T1 sequence (P08908 1-422): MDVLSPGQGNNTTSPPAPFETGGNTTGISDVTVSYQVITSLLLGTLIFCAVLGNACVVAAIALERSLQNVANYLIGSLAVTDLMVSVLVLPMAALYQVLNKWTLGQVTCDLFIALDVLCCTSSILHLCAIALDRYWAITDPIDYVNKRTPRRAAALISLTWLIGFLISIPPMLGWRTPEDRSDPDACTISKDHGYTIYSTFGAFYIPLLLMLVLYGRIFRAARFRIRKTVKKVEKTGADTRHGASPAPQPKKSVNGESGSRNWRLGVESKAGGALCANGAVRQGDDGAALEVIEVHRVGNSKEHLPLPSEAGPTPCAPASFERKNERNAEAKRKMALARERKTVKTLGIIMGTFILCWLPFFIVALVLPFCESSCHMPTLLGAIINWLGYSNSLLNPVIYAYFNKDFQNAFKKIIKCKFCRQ
# human 5-HT6 receptor = biological target: T2, human 5-HT6 receptor (Homo sapiens, UniProt P50406); experiment: GPCR radioligand binding assay, [3H]-LSD displacement, HEK293 membranes; details: for 5-HT6 % Inhibition by plate position: 10 µM; for %inh 5-HT6 average: average of exp_1 and exp_2; for %inh 5-HT6 corrected*: average, values below 0 and above 100% were set as 0 and 100; for %inh 5-HT6 exp_1: replicate exp_1; for %inh 5-HT6 exp_2: replicate exp_2
# T2 construct: expressed in transfected cells
# T2 sequence (P50406 whole entry): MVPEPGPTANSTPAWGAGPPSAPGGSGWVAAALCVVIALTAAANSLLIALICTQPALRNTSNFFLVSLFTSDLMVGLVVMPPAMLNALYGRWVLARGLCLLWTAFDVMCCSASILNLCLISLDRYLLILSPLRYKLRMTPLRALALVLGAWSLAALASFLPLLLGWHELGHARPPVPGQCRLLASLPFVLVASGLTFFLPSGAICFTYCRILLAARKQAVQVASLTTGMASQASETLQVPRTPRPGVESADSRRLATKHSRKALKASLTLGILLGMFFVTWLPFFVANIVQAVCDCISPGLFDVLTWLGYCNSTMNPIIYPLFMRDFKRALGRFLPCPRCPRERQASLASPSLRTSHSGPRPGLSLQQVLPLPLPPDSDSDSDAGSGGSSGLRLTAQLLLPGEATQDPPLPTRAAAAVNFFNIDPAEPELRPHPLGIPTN
# human 5-HT7b receptor = biological target: T3, human 5-HT7b receptor (Homo sapiens, UniProt P34969); experiment: GPCR radioligand binding assay, [3H]-5-CT displacement, HEK293 membranes; details: for 5-HT7 % Inhibition by plate position: 10 µM; for %inh 5-HT7 exp_1: replicate exp_1; for %inh 5-HT7 exp_2: replicate exp_2; for %inh 5-HT7 average: average of exp_1 and exp_2
# T3 construct: expressed in transfected cells
# T3 sequence (P34969 1-432): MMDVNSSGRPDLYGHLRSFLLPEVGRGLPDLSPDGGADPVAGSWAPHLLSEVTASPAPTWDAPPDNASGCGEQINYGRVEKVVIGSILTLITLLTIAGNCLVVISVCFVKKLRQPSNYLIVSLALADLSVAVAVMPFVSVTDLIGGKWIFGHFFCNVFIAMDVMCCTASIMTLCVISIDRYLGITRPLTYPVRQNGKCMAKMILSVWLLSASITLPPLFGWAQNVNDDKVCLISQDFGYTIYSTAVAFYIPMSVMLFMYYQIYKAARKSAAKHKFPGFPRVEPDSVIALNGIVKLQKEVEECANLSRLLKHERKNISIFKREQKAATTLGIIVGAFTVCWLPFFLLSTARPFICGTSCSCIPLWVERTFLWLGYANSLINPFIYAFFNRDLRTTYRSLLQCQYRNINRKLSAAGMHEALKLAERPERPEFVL
Compound,%inh 5-HT1A average (human 5-HT1A receptor) [%],%inh 5-HT1A corrected* (human 5-HT1A receptor) [%],%inh 5-HT1A exp_1 (human 5-HT1A receptor) [%],%inh 5-HT1A exp_2 (human 5-HT1A receptor) [%],5-HT6 % Inhibition by plate position (human 5-HT6 receptor) [%],%inh 5-HT6 average (human 5-HT6 receptor) [%],%inh 5-HT6 corrected* (human 5-HT6 receptor) [%],%inh 5-HT6 exp_1 (human 5-HT6 receptor) [%],%inh 5-HT6 exp_2 (human 5-HT6 receptor) [%],5-HT7 % Inhibition by plate position (human 5-HT7b receptor) [%],%inh 5-HT7 exp_1 (human 5-HT7b receptor) [%],%inh 5-HT7 exp_2 (human 5-HT7b receptor) [%],5-HT1A % Inhibition by plate position (human 5-HT1A receptor) [%],%inh 5-HT7 average (human 5-HT7b receptor) [%]
c1ccc2c(N3CCNCC3)ccnc2c1 [C4],81,81,78,83,72,72,72,71,72,16,17,15,–,–
O=c1ccc2c([nH]1)CCCC2 [C5],-1.35,–,-18,15,46,46,46,39,53,1,0.605,1.43,0,–
CC1(C)OC(=O)c2cc(Br)c(O)cc2O1 [C6],-0.191,–,-7.5,7,56,56,56,67,45,0.891,1.78,0,0,–
CC(=O)c1ccc2c(c1)CCCN2 [C7],2.29,2.29,-2,6.6,9,9,9,10,8,0,-14,-18,–,-16
CC(=O)c1ccc2c(c1)CNCC2 [C8],-13,–,-22,-3.26,2.55,2.55,2.55,6,-1,4,8,0,0,–
O=C1NC2(CCCC2)Nc2ccccc21 [C9],-0.0168,–,4.43,-4.46,44,44,44,46,41,5,-2.47,13,0,–
O=c1[nH]c2c(s1)CCC2 [C10],-4,–,2.56,-11,42,42,42,44,39,0.592,-6.56,8,0,–
C1=C[C@H]2O[C@@H]1c1ccccc12 [C11],-11,–,-11,-11,46,46,46,42,50,0,-5.66,-11,0,-8
N#Cc1ccc2ncsc2c1 [C12],5.41,5.41,11,-0.546,35,35,35,39,32,0,-6,-8.5,–,-7
Nc1ccc(SC(F)F)cc1 [D1],-16,–,-6.6,-25,45,45,45,52,38,8,5.58,10,0,–
CCc1ccc(NC2=NCCCS2)cc1 [D2],29,29,30,27,16,16,16,19,13,6,12,0.291,–,–
CCn1cnc2ccccc21 [D4],-8,–,-16,0,23,23,23,23,23,0,1.55,-12,0,-5.34
CCCN1C(=O)CC(=O)NC1=S [D5],-8.49,–,-9,-8,49,49,49,57,41,10,13,6,0,–
Cc1ccc(C)n1Cc1ccccc1Cl [D6],6.37,6.37,4.33,8,26,26,26,30,23,0,-2.55,-8.54,–,-5.55
Cc1ccc(-c2ccc(O)cc2)cc1 [D7],-20,–,-25,-14,45,45,45,52,38,0,2.16,-17,0,-7.45
c1ccc2oc(C3CCCNC3)nc2c1 (centres unmarked) [D10],78,78,77,80,25,25,25,22,28,0,-4,3.22,–,-0.305
COc1ccc(CN2CCNCC2)cc1F [D11],-7,–,10,-23,41,41,41,45,38,0,-5,4.58,0,-0.31
O=C(c1ccncc1)N1CCNCC1 [E2],3.69,3.69,13,-6,24,24,24,15,33,3.34,1.81,5,–,–
CC1C(=O)NC(=O)N1c1ccc(Cl)cc1 (centres unmarked) [E3],-4,–,5,-13,43,43,43,41,44,17,19,14,0,–

# From article PMC8159961, “Exploring protein hotspots by optimized fragment pharmacophores” (Nature Communications, 2021)
